# Data from patent US8735411B2, “Macrocyclic benzofused pyrimidine derivatives” (AbbVie Inc., priority 2006, dated 2014).
# Molecular target: histamine H4 receptor (Homo sapiens, UniProt Q9H3N8)
# Test: In vitro histamine H4 potency in FLIPR (Ca2+ flux, HEK-293 cells coexpressing Gαqi5)
# Type: cell-based
# Parameters: expressed in transfected cells
# Details: Kb for antagonists and inverse agonists, EC50 for partial agonists
# How it was run: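 Fluo-4-loaded cells read on FLIPR for intracellular Ca2+ rise after compound addition, with pre-addition fluorescence subtracted. Peak responses per concentration expressed as % of the full-agonist histamine response. Concentration–response fits give Kb for antagonists/inverse agonists and EC50 for partial agonists.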
row,Compound,Potency
1,"CN[C@@H]1CCN(c2nc(N)nc3c2SCCc2ccccc2-3)C1 [Example 107, 4-((R)-3-Methylamino-pyrrolidin-1-yl)-6,7-dihydro-5-thia-1,3-diaza-dibenzo[a,c]cyclohepten-2-ylamine]",11 nM
2,"COC(=O)c1ccc2c(c1)OCCc1c-2nc(N)nc1N1CC2CCCNC2C1 (stereo not drawn) [Example 108, 2-Amino-4-octahydro-pyrrolo[3,4-b]pyridin-6-yl-5,6-dihydro-7-oxa-1,3-diaza-dibenzo[a,c]cycloheptene-9-carboxylic acid methyl ester]",53 nM
3,"Nc1nc2c(c(N3CCNCC3)n1)SCCc1ccccc1-2 [Example 109, 4-Piperazin-1-yl-6,7-dihydro-5-thia-1,3-diaza-dibenzo[a,c]cyclohepten-2-ylamine]",87 nM
4,"Nc1nc2c(c(N3CC4CCCNC4C3)n1)SCCc1ccccc1-2 (stereo not drawn) [Example 110, 4-(Octahydro-pyrrolo[3,4-b]pyridin-6-yl)-6,7-dihydro-5-thia-1,3-diaza-dibenzo[a,c]cyclohepten-2-ylamine]",54 nM
5,"CN[C@@H]1CCN(c2nc(N)nc3c2S(=O)(=O)CCc2ccccc2-3)C1 [Example 111, 4-((R)-3-Methylamino-pyrrolidin-1-yl)-5,5-dioxo-6,7-dihydro-5H-5λ6-thia-1,3-diaza-dibenzo[a,c]cyclohepten-2-ylamine]",1413 nM
6,"CN[C@@H]1CCN(c2nc(N)nc3c2[S+]([O-])CCc2ccccc2-3)C1 (stereo partly drawn) [Example 112, 4-((R)-3-Methylamino-pyrrolidin-1-yl)-5-oxo-6,7-dihydro-5-thia-1,3-diaza-dibenzo[a,c]cyclohepten-2-ylamine]",2455 nM
7,"Nc1nc(NCCCN2CCCCC2)c2c(n1)-c1ccccc1CCC2 [Example 113, N^4-(3-Piperidin-1-yl-propyl)-6,7-dihydro-5H-benzo[6,7]cyclohepta[1,2-d]pyrimidine-2,4-diamine]",4266 nM
8,"Nc1nc2c(c(N3CC4CCCNC4C3)n1)CCCc1ccc(F)cc1-2 (stereo not drawn) [Example 115, 10-fluoro-4-octahydro-6H-pyrrolo[3,4-b]pyridin-6-yl-6,7-dihydro-5H-benzo[6,7]cyclohepta[1,2-d]pyrimidin-2-amine]",32 nM
9,"Nc1nc2c(c(N3CCCNCC3)n1)CCCc1ccccc1-2 [Example 116, 4-[1,4]Diazepan-1-yl-6,7-dihydro-5H-benzo[6,7]cyclohepta[1,2-d]pyrimidin-2-ylamine]",15 nM
10,"Nc1nc2c(c(N3C[C@H]4CNC[C@H]43)n1)CCCc1ccccc1-2 [Example 117, (1R,5S)-4-(3,6-Diaza-bicyclo[3.2.0]hept-6-yl)-6,7-dihydro-5H-benzo[6,7]cyclohepta[1,2-d]pyrimidin-2-ylamine]",12 nM
11,"c1ccc2c(c1)CCCc1c-2ncnc1N1CCNCC1 [Example 118, 4-Piperazin-1-yl-6,7-dihydro-5H-benzo[6,7]cyclohepta[1,2-d]pyrimidine]",138 nM
12,"Nc1nc2c(c(N3CC[C@H]4CNC[C@H]43)n1)CCCc1ccccc1-2 [Example 119, (3aS,6aS)-4-(Hexahydro-pyrrolo[3,4-b]pyrrol-1-yl)-6,7-dihydro-5H-benzo[6,7]cyclohepta[1,2-d]pyrimidin-2-amine]",269 nM
13,"Nc1nc2c(c(N3C[C@@H]4CN[C@@H]4C3)n1)CCCc1ccccc1-2 [Example 120, (1S,5S)-4-(3,6-Diaza-bicyclo[3.2.0]hept-3-yl)-6,7-dihydro-5H-benzo[6,7]cyclohepta[1,2-d]pyrimidin-2-ylamine]",603 nM
14,"Nc1nc(NC2CCCNC2)c2c(n1)-c1ccccc1CCC2 (stereo not drawn) [Example 121, N^4-piperidin-3-yl-6,7-dihydro-5H-benzo[6,7]cyclohepta[1,2-d]pyrimidine-2,4-diamine]",407 nM
15,"Nc1nc(NC2CCCC3CNCC32)c2c(n1)-c1ccccc1CCC2 (stereo not drawn) [Example 122, N^4-(Octahydro-isoindol-4-yl)-6,7-dihydro-5H-benzo[6,7]cyclohepta[1,2-d]pyrimidine-2,4-diamine]",1288 nM
16,"CNc1nc2c(c(N3CCNCC3)n1)CCCc1ccccc1-2 [Example 123, Methyl-(4-piperazin-1-yl-6,7-dihydro-5H-benzo[6,7]cyclohepta[1,2-d]pyrimidin-2-yl)-amine]",1622 nM
17,"c1ccc2c(c1)CCCc1c-2nc(NCCc2c[nH]cn2)nc1N1CC2CCCNC2C1 (stereo not drawn) [Example 127, 6-(2-(1H-imidazol-4-yl)ethylamino-6,7-dihydro-5H-benzo[6,7]cyclohepta[1,2-d]pyrimidin-4-yl)octahydro-1H-pyrrolo[3,4-b]pyridine]",933 nM
18,"[1-(6,7-Dihydro-5H-benzo[6,7]cyclohepta[1,2-d]pyrimidin-4-yl)-azetidin-3-yl]-amine [Example 125]",631 nM

# Continued, values first:
row,Potency,Compound
1,1413 nM,"CN[C@@H]1CCN(c2ncnc3c2CCCc2ccccc2-3)C1 [Example 124, 4-(3-(R)-Methylamino-pyrrolidin-1-yl)-6,7-dihydro-5H-benzo[6,7]cyclohepta[1,2-d]pyrimidine]"
2,2754 nM,"Cc1cc(C)c2c(c1)-c1nc(N)nc(N3CCNCC3)c1CCC2 [Example 126, 8,10-Dimethyl-4-piperazin-1-yl-6,7-dihydro-5H-benzo[6,7]cyclohepta[1,2-d]pyrimidin-2-ylamine]"
3,562 nM,"COC(=O)N(C)c1ccc2c(c1)-c1nc(N)nc(N3CCNCC3)c1CCC2 [Example 128, (2-Amino-4-piperazin-1-yl-6,7-dihydro-5H-benzo[6,7]cyclohepta[1,2-d]pyrimidin-10-yl)-methyl-carbamic acid methyl ester]"
4,1096 nM,"CNc1ccc2c(c1)-c1nc(N)nc(N3CCNCC3)c1CCC2 [Example 129, 10-N-Methyl-4-piperazin-1-yl-6,7-dihydro-5H-benzo[6,7]cyclohepta[1,2-d]pyrimidine-2,10-diamine]"
5,164 nM,"COC(=O)N(C)c1ccc2c(c1)-c1nc(N)nc(N3CC4CCCNC4C3)c1CCC2 (stereo not drawn) [Example 130, (2-Amino-4-octahydro-pyrrolo[3,4-b]pyridin-6-yl-6,7-dihydro-5H-benzo[6,7]cyclohepta[1,2-d]pyrimidin-10-yl)-methyl-carbamic acid methyl ester]"
6,113 nM,"CNc1ccc2c(c1)-c1nc(N)nc(N3C[C@H]4CCCN[C@H]4C3)c1CCC2 [Example 131, 10-N-methyl-4-[(4aR,7aR)-octahydro-6H-pyrrolo[3,4-b]pyridin-6-yl]-6,7-dihydro-5H-benzo[6,7]cyclohepta[1,2-d]pyrimidine-2,10-diamine]"
7,1096 nM,"CC(=O)Nc1cccc2c1-c1nc(N)nc(N3CCNCC3)c1CCC2 [Example 132, N-(2-Amino-4-piperazin-1-yl-6,7-dihydro-H-benzo[6,7]cyclohepta[1,2-d]pyrimidin-11-yl)-acetamide]"
8,14454 nM,"COC(=O)c1nc2c(c(N3CC4CCCNC4C3)n1)CCCc1ccccc1-2 (stereo not drawn) [Example 133, 4-(Octahydro-pyrrolo[3,4-b]pyridin-6-yl)-6,7-dihydro-5-benzo[6,7]cyclohepta[1,2-d]pyrimidine-2-carboxylic acid methyl ester]"
9,11885 nM,"O=C(O)c1nc2c(c(N3CC4CCCNC4C3)n1)CCCc1ccccc1-2 (stereo not drawn) [Example 134, 4-(Octahydro-pyrrolo[3,4-b]pyridin-6-yl)-6,7-dihydro-5H-benzo[6,7]cyclohepta[1,2-d]pyrimidine-2-carboxylic acid]"
